In US20230102860A1, “METHOD FOR C[…] FUNGICIDE-RESISTANT SOYBEAN RUST FUNGI” (SUMITOMO CHEMICAL COMPANY, LIMITED, priority 2020, published 2023):

Tested on: soybean rust fungus (Phakopsora pachyrhizi) having an amino acid substitution of F129L on mitochondrial cytochrome b protein
Experiment: Comparative Test Example 1: soybean leaf disk test at 50 ppm or 12.5 ppm, lesion area (Table A, Table B)
Format: in vivo
Method: A soybean leaf (cv; Kurosengoku) was punched out to 1 cm diameter to prepare a leaf disk. Each 1 mL of 1.2% agar medium was dispensed in 24 well microplate. A piece of the leaf disk was placed on each well. To a mixture of 0.5 μL of Sorpol (registered trademark) 1200KX, 4.5 μL of DMSO, and 5 μL of xylene was added 20 μL of a DMSO solution containing 10,000 ppm of the test compound. The resulting mixture was diluted with ion exchange water to prepare a spray solution containing a predetermined concentration of the test compound. The spray solution was sprayed in 10 μL per one leaf disk. After 1 day, an aqueous suspension of spores of soybean rust fungus (Phakopsora pachyrhizi) having an amino acid substitution of F129L on mitochondrial cytochrome b protein (1.0×10^5/mL) was inoculated onto the leaf disks. After the inoculation, the microplate was placed in a growth chamber (light on for 6 hours, light off for 18 hours, 23° C. temperature, 60% humidity). After 1 day, the leaf disks were air-dried to disappear water droplets on the surface of the leaf disk, and the microplate was placed again in the growth chamber for 10 to 14 days. Thereafter, a lesion area of soybean rust disease was assessed. […] Here the untreated means that the spray solution containing the test compound was not sprayed onto the leaf disk.
The test was conducted by using as a test compound the present compound 3, 5, 11, 59, 200, 202, 207, 214, 222, 294 or 391, or azoxystrobin, dimoxystrobin or metominostrobin, at the predetermined concentration of 50 ppm or 12.5 ppm according to a method described in the Test Example 1. The results thereof are indicated in [Table A] and [Table B].

CO/C=C(/C(=O)OC)c1ccccc1/C=C/C1CC1C (stereo not shown)
Lesion Area at each concentration (%) (12.5 ppm): 0%
Lesion Area at each concentration (%) (50 ppm): 0%

CO/C=C(/C(=O)OC)c1ccccc1/C=C/C1CC1(F)F (stereo not shown)
Lesion Area at each concentration (%) (12.5 ppm): 0%
Lesion Area at each concentration (%) (50 ppm): 0%

CCc1ccc(/C(=C\OC)C(=O)OC)c(/C=C/C2CC2)c1
Lesion Area at each concentration (%) (12.5 ppm): 0%
Lesion Area at each concentration (%) (50 ppm): 0%

CO/C=C(/C(=O)OC)c1ccc(Cl)cc1/C=C/C1CC1(C)C (stereo not shown)
Lesion Area at each concentration (%) (12.5 ppm): 0%
Lesion Area at each concentration (%) (50 ppm): 0%

CCCCC#Cc1cc(Cl)ccc1/C(=C\OC)C(=O)OC
Lesion Area at each concentration (%) (12.5 ppm): 0%
Lesion Area at each concentration (%) (50 ppm): 0%

CO/C=C(/C(=O)OC)c1ccc(Cl)cc1C#CCC(C)C
Lesion Area at each concentration (%) (12.5 ppm): 0%
Lesion Area at each concentration (%) (50 ppm): 0%

CO/C=C(/C(=O)OC)c1ccc(OC)cc1C#CCC(C)C
Lesion Area at each concentration (%) (12.5 ppm): 0%
Lesion Area at each concentration (%) (50 ppm): 0%

CO/C=C(/C(=O)OC)c1ccc(Cl)cc1C#CCC1CCCC1
Lesion Area at each concentration (%) (12.5 ppm): 0%
Lesion Area at each concentration (%) (50 ppm): 0%

CO/C=C(/C(=O)OC)c1ccccc1COc1ccn(-c2ccc(Cl)cc2)n1
Lesion Area at each concentration (%) (12.5 ppm): 10%
Lesion Area at each concentration (%) (50 ppm): 0%

CNC(=O)/C(=N/OC)c1ccccc1COc1ccn(-c2ccc(Cl)cc2)n1
Lesion Area at each concentration (%) (12.5 ppm): 10%
Lesion Area at each concentration (%) (50 ppm): 0%

CO/C=C(/C(=O)OC)c1c(C)cccc1CO/N=C(\C)c1ccc(Cl)cc1
Lesion Area at each concentration (%) (12.5 ppm): 0%
Lesion Area at each concentration (%) (50 ppm): 0%

CO/C=C(/C(=O)OC)c1ccccc1Oc1cc(Oc2ccccc2C#N)ncn1
Lesion Area at each concentration (%) (12.5 ppm): 100%
Lesion Area at each concentration (%) (50 ppm): 100%

CNC(=O)/C(=N/OC)c1ccccc1COc1cc(C)ccc1C
Lesion Area at each concentration (%) (12.5 ppm): 100%
Lesion Area at each concentration (%) (50 ppm): 100%

CNC(=O)/C(=N/OC)c1ccccc1Oc1ccccc1
Lesion Area at each concentration (%) (12.5 ppm): 100%
Lesion Area at each concentration (%) (50 ppm): 100%
